Measured values taken from patent US5143908A, “Antibacterial agents and potentiators of carbapenem antibiotics” (Merck & Co., Inc., priority 1990, dated 1992).
In brackets after ≈: the same amount, converted by molar mass.

Legend:
[1] = molecular target: T1, D-Alanyl-D-Alanine ligase (Enterococcus hirae, UniProt Q47827); assay: D-Alanyl-D-Alanine ligase inhibition in vitro; assay type: biochemical; settings: inhibitor pre-incubated with enzyme 40 minutes at room temperature, then 37° C. for 30 minutes; 14C-D-alanine substrate; read-out: IC50 (μM), DAlaAla ligase inhibition
T1 sequence (Q47827 1-358): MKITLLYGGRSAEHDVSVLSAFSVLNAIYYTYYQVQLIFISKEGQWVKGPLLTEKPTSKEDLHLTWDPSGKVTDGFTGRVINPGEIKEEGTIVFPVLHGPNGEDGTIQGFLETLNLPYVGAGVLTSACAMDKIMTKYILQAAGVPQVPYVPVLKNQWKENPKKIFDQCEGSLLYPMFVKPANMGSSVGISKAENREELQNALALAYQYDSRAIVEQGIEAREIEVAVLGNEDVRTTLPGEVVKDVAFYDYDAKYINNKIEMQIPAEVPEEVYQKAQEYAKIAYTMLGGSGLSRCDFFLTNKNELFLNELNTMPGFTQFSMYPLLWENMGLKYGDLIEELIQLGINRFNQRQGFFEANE
Experimental: The ligase enzyme inhibitory activity of compounds of Formula I have been evaluated in vitro with only minor modifications of the procedures of F. C. Neuhaus (Biochemistry 3, 471-480 (1964) and references cited therein) using D-cycloserine as a control and standard ligase inhibitor. The procedure is as follows:
Streptococcus faecalis (ATCC 8043) was grown as described by Neuhaus (J. Biol. Chem., 237:778, 1962). Cell-free extracts were prepared by sonication followed by centrifugation at 27,000 x g for 30 minutes. Protein was precipitated with 55% ammonium sulfate. The precipitate was dissolved in 0.05M Tris-Cl buffer (pH 7.0), dialyzed against 0.002M glutathione and stored in liquid nitrogen. No loss of activity was observed after 1 year.
The assay mixture contained 0.05M Tris-Cl buffer (pH 7.9), 0.01M KCl, 0.008M MgCl2, 0.005M ATP, 0.005M (14C-l)-D-alanine and 5 μl of enzyme (specific activity=0.38 units/mg protein). Assay volume was 0.1 ml.
Inhibitors were pre-incubated with enzyme, MgCl2, KCl and buffer, for 40 minutes at room temperature, before addition of ATP and substrate. Samples were subsequently incubated at 37° C. for 30 minutes.
Twenty μl of each sample was applied to the preabsorbent layer of high resolution, prechanneled silica-gel TLC plates to stop the reaction. Plates were developed in ethanol:ammonium hydroxide:H2 O (11:1:8) for 2-3 hours and the radioactive zones located and integrated with a Berthold Linear Analyzer. […] IC50's were determined for active compounds (70% inhibition).

[2] = system: E. coli TEM 2+; assay: Agar dilution antibacterial assay (MIC); assay type: cell-based; settings: Escherichia coli, read-out: Minimum Inhibitory Concentration, E. coli TEM 2+
From the text: The antibacterial data shown below were obtained using a synthetic agar medium described by F. R. Atherton et al., Antimicrobial Agents and Chemotherapy, 15, 677 (1979).
(Minimum Inhibitory Concentrations from Agar Dilution Assays in mg/ml)

SMILES | IC50 [1] [µM] | MIC [2] [mg/mL]
CCC(CP(=O)(O)C(C)N)C(=O)O (racemic) [DL, R2=ethyl, R3=H, 1-Aminoethyl-[2-carboxy-1-n-butyl]phosphinic acid] | 50 | 
CC(N)P(=O)(O)CCC(=O)O (racemic) [DL, R2=H, R3=H, 1-Aminoethyl-[2-carboxy-1-ethyl]phosphinic acid] | 535 | 
CCC(CP(=O)(O)[C@@H](C)N)C(=O)O (stereo partly drawn) [D, R2=ethyl, R3=H, 1-D-Aminoethyl-(2-carboxy-1-n-butyl)phosphinic acid] |  | 64 (≈ 306 mM)
CCCCCCCC(CP(=O)(O)C(C)N)C(=O)O (racemic) [DL, R2=n-heptyl, R3=H, 1-Aminoethyl-[2-carboxy-1-nonyl]phosphinic acid] | 12.5 | 
